This is an account of results in patent US5770563A, “Heparin- and sulfatide binding peptides from the type I repeats of human thrombospondin and conjugates thereof” (The United States of America as represented by the …, priority 1995, dated 1998).

Read-outs that look alike come from different tables or passages of the source. Square brackets hold non-standard residues; d marks the D form. Peptide text beside a SMILES is read from it.

For test [1], the system named is MDA MB435 breast carcinoma cells. Nature of the test: MDA MB435 human breast carcinoma cell proliferation. The class given is cell-based. The procedure:
Human breast carcinoma cells MDA MB435 (American Type Culture Collection) were grown in RPMI 1640 medium containing 10% fetal calf serum. Proliferation was determined as described in FIG. 18 and 44A, B and C.
Human breast carcinoma cells MDA MB435 (American Type Culture Collection) were grown in RPMI 1640 medium containing 10% fetal calf serum. Proliferation was determined in the presence of 0.5% fetal calf serum and bFGF as described in FIG. 19.

For test [2], the target named is basic fibroblast growth factor (FGF-2) binding to heparin. Nature of the test: Inhibition of 125I-bFGF binding to heparin-BSA conjugate. The conditions noted are these: retro-inverso peptides; read-out: IC50 for Inhibition of Binding. The procedure:
Binding of ^125 I-bFGF to heparin was determined using an immobilized heparin-BSA conjugate as previously described (Guo, et al. (1992) Proc. Nat'l Acad. Sci. 89:3040-3044). ^125 I-bFGF, prepared as described by Neufeld, et al, (1985), J. Biol. Chem. 260:13860-13868, was added described above, and incubated for 2 hours at 25° C. Bound radioactivity was determined after washing and cutting the wells from the plate. FIGS. 40A, B and C show the inhibition of ^125 I-bFGF binding to heparin by a number of TSP peptide analogs.

The subject of the next test is bovine endothelial cells. As to the kind of experiment: Inhibition of bovine endothelial cell proliferation (Table 7). It counts as cell-based. Conditions: free peptide; read-out: IC50 Inhibitory Activity, Free Peptide. As for the experimental part:
Similar structure-function and epitope mapping studies were carried out with regard to inhibition of bovine endothelial cell proliferation. […] This may be due either to a lower tendency of the conjugates to stick to the microtiter wells or a greater tendency to disrupt binding of the cells to the substratum in the wells.
Endothelial cell proliferation was measured using the CELL TITER 96™ assay (Promega, Madison, Wis.). 5×10^3 cells were plated into each well of a 96-well culture plate in 0.5 or 5% FCS-containing medium together with the indicated concentrations of growth effectors. After 72 h, 15 μl of dye solution was added to each well, and the plates were incubated for an additional 4 h. Solubilization solution was added, and absorbance at 570 nm was determined after 24 h as described by the manufacturer.

The target in test [3] is thrombospondin binding to heparin. As to the kind of experiment: Inhibition of 125I-thrombospondin binding to immobilized heparin-BSA. Details: species or system human. As for the experimental part:
(§1) The peptides were tested as inhibitors of laminin, thrombospondin or apolipoprotein E binding to a heparin-bovine serum albumen conjugate or to a sulfatide in a solid phase assay essentially following the procedure described in Zabrenetzky et al., Cancer Res., Vol. 50, pages 5937-5942 (1990). Sulfatide (0.2 μg/well for thrombospondin binding, 0.6 μg/well for laminin binding) was immobilized in a mixture of 50 ng of phosphatidyl choline, and 30 ng of cholesterol on polyvinyl chloride microtiter plates. Heparin-BSA (0.2 μg/well) was absorbed onto polyvinyl chloride microtiter plate wells by incubation of 50 μl of Dulbecco's PBS for 2 h at 37°. The wells were emptied and filled with 50 mM tris, pH 7.8 containing 150 mM NaCl, 1 mM CaCl2, 0.025% NaN3, and 1% BSA. After 30 minutes, the wells were emptied and 30 μl of various concentrations of potential inhibitory peptides diluted in the same buffer or buffer alone and 30 μl of ^125 I-labeled laminin, thrombospondin or apolipoprotein E (0.2 μg/ml) were added to each well. After 3 hours at 4°, the wells were washed 6 times with 0.15M NaCl, cut from the plate and the bound radioactivity counted. FIGS. 1A-B and 2A-B show the level of thrombospondin binding to sulfatide and heparin-BSA, respectively, in the presence of increasing concetrations of the peptides listed. FIGS. 3 and 4A-B show the level of laminin binding to sulfatide and heparin-BSA, respectively, in the presence of increasing concentrations of the listed peptides.
Microtiter plate wells were coated with heparin-BSA. Heparin-BSA (0.2 μg/well) was adsorbed by incubation in 50 μl of Dulbecco's PBS for 2 h at 370. The wells were emptied, filled with tris-BSA, and incubated for 30 to 60 minutes. The buffer was removed, and labelled thrombospondin was added and incubated in the wells for 3 h at 40. The wells were emptied and washed 4 times with saline. The bottoms of the wells were cut from the plate and counted to quantify thrombospondin binding. Inhibition of thrombospondin binding was determined using peptides diluted in 30 μl of 50 mM tris buffer, pH 7.8, containing 110 mM NaCl, 1 mM CaCl2, 0.025% NaN3, and 1% BSA or buffer alone and 30 μl of ^125 I-labeled TSP (0.2 μg/ml).

Test [4] addresses thrombospondin binding to sulfatide. Nature of the test: Inhibition of 125I-thrombospondin binding to sulfatide. Details: species or system human. Conditions: Table 1, free peptide. As for the experimental part:
as §1

The target in test [5] is laminin binding to sulfatide. As to the kind of experiment: Inhibition of 125I-laminin binding to sulfatide. Details: species or system mouse. Conditions: Table 2, free peptide. As for the experimental part:
as §1

The test system of test [6] is A2058 melanoma cells. Nature of the test: A2058 melanoma cell adhesion to peptides adsorbed on plastic. It counts as cell-based, human. As for the experimental part: Human melanoma cell line A2058 (Todaro et al., Proc. Natl. Acad. Sci USA 77, 5258-5262 (1980)) was maintained by monolayer culture at 37° with 5% carbon dioxide in RPMI 1640 medium containing 10% fetal bovine serum. For attachment assays, cells were removed using trypsin, passaged at 10^4 cells/cm^2 and harvested between days 5 and 7. Attachment and spreading on thrombospondin-coated plastic was determined as previously described (Roberts et al., J. Cell Biol. 104, 131-139 (1987)). Inhibition was determined by adding the inhibitor diluted in 0.4 ml of bicarbonate-free RPMI 1640 medium, containing 1 mg/ml of bovine serum albumin (fatty acid free, Sigma), pH 7.3, to wells of a 24-well dish containing bacteriological polystyrene was coated with the indicated peptides at 200 μg/ml. Melanoma cells were harvested by incubation with phosphate buffered saline containing 2.5 mM EDTA for 20 minutes at 37°. The cells were centrifuged and viability (routinely >99%) was assessed by trypan blue exclusion. The cells were resuspended in medium and allowed to recover in suspension for 1 h. Melanoma cells (2×10^5 ) suspended in 100 μl of medium (approx 10^3 /mm^2) were added to each well and allowed to attach for 60 minutes at 37° C. in a humidified atmosphere.

Test [7] has as its target laminin binding to heparin. Nature of the test: Inhibition of 125I-laminin binding to heparin-BSA. The arrangement: species or system mouse. Conditions: Table 2, free peptide. The procedure: as §1
Test [8] addresses apolipoprotein E binding to heparin. As to the kind of experiment: Inhibition of 125I-apolipoprotein E binding to heparin-BSA. The conditions noted are these: Table 2, free peptide; read-out: IC50 Apo E Binding to Heparin. As for the experimental part: as §1
For test [9], the system named is A2058 melanoma cells. As to the kind of experiment: 125I-thrombospondin binding to A2058 melanoma cells. The conditions noted are these: dose dependent. The class given is cell-based, human. The procedure: Melanoma cells (1×10^5 in 0.2 ml) were incubated with 0.2 μg/ml labeled laminin alone or in the presence of 200 micrograms per ml of peptides from SEQ ID NO:1, SEQ ID NO:2, or SEQ ID NO:3, type-I repeats from thrombospondin (FIG. 5A). Melanoma cells were also incubated with labelled laminin or thrombospondin alone or in the presence of 10 μg/ml of peptides from the first (184, SEQ ID NO:1), second (185, SEQ ID NO:2 and 246, SEQ ID NO:19), or third type I repeat of thrombospondin (186, SEQ ID NO:3) or 1 μg/ml heparin (FIG. 5B). The cells were centrifuged through oil to separate the free laminin from the bound laminin followed by quantifying the radioactivity in the cell pellet by a gamma counter. The results are presented in FIGS. 5A and B, as a percent of control binding determined in the absence of peptide and is the mean of triplicate determinations±the standard deviation.
Melanoma cells (3×10^5 cells in 0.2 ml) were incubated with 0.2 μg/ml of labelled I^125 -thrombospondin alone or in the presence of increasing concentrations of heparin or a peptide having the sequence according to SEQ ID NO:1 or a combination of the two inhibitors. […]
A2058 melanoma cells were harvested as described above and suspended in Dulbecco's PBS containing 1 mg/ml BSA. […] The supernatant fluid was aspirated, and the bottom of the tube was cut and counted.

Another test deals with AIDS-KS cells. As to the kind of experiment: AIDS-KS cell chemotaxis, modified Boyden chamber. Conditions: added in the lower well. The class given is cell-based, human. The procedure: Directed migration (chemotaxis) and general migration (chemokinesis) of AIDS-KS cells in culture was measured by the modified Boyden chamber assay using fibronectin coated […] Nucleopore filters as previously described. In brief, the AIDS-KS cells, were trypsinized then resuspended in RPMI 1640 containing […] (GIBCO-BRL) and 20% activated lymphocyte conditioned medium. The trypsinized cells were allowed to recover in suspension for 2 hours, then the cells were recovered by centrifugation and resuspended in RPMI 1640 containing 0.1% BS at 5×10^5 cells/ml prior to adding 100 μl to the upper wells in the chemotaxis chamber. Migration to BSA (0.1%) and OSM was performed in the presence of the indicated concentrations of TSP, and TSP peptide-FICOLL conjugates. After 3 hours incubation at 37° C. filters were stained with Diff Quick (Merz-Dade, Dudingen, Switzerland), and the migrated cells in ten high-power fields were counted. The values are triplicate determinations and the bars indicate standard deviations, n=3.

[10] abbreviates: Table 1, free peptide, read-out: IC50 Heparin Binding, inhibition of 125I-thrombospondin binding.

For the molecule KRFKQDGGWSHWSPWSSC [Peptide 364], in test [1] (FICOLL conjugate), the “inhibition of MDA435 proliferation, in words” value is recorded as “strongly inhibited proliferation”. Also, the “fold less active than native thrombospondin” value in [1] (from dose response curves, 0.5% fetal calf serum and bFGF) was “approximately 10 fold”. For the same molecule, the “activity relative to native thrombospondin on a subunit molar basis” value in [1] (subunit molar basis) is “about three-fold less active”.

By IC50 is commonly meant the concentration that inhibits the measured activity by half. For `CC(=O)N[C@H](CS)C(=O)N[C@H](CO)C(=O)N[C@H](CO)C(=O)N[C@H](C)C(=O)N1CCC[C@@H]1C(=O)N[C@H](CO)C(=O)N[C@H](C)C(=O)N[C@H](Cc1c[nH]cn1)C(=O)N[C@H](CO)C(=O)N[C@H](C)C(=O)NCC(=O)NCC(=O)N[C@H](CC(=O)O)C(=O)N[C@H](CCC(N)=O)C(=O)N[C@H](CCCCN)C(=O)N[C@H](C)C(=O)N[C@H](CCCNC(=N)N)C(=O)N[C@H](CCCCN)C(N)=O` [Peptide 513, ri-amKRAKQDGGASHASPASSCac] (Ac-[dC][dS][dS][dA][dP][dS][dA][dH][dS][dA]GG[dD][dQ][dK][dA][dR][dK]-NH2), the IC50 in [2] was determined as 18 µM; with bovine endothelial cells, 18 µM; in test [3] (retro-inverso peptides, free, read-out: IC50 Inhibitory Activity, Free Peptide), 6.2 µM.

For `CC(C)[C@H](NC(=O)[C@H](CO)NC(=O)[C@@H](N)CS)C(=O)N[C@H](C(=O)N[C@@H](CS)C(=O)NCC(=O)O)[C@@H](C)O` [Peptide 187, CSVTCG] (H-CSVTCG-OH), the IC50 in test [4] was found to be 14 µM; in test [5] it was 3.9 µM; in test [3] (setting [10]), 6 µM; in test [7], 3 µM; in test [8], 84 µM. For the same molecule, the “inhibition of thrombospondin binding to heparin, in words” value in [3] (free peptide) was “active”. For the same molecule, the “promotion of melanoma cell adhesion, in words” value in the test on A2058 melanoma cells [6] (peptide adsorbed on plastic) is listed as “promoted significant cell adhesion above background”.

As for “apolipoprotein E: recombinant apolipoprotein E, heparin-binding protein”, the “inhibition of A2058 adhesion to the peptides” value in the test on A2058 melanoma cells [6] (disks coated with 200 μg/ml peptide 185) was “inhibited adhesion”.

For `C[C@@H](O)[C@H](NC(=O)[C@H](CO)NC(=O)[C@H](CS)NC(=O)[C@H](CO)NC(=O)[C@@H](NC(=O)[C@H](Cc1c[nH]c2ccccc12)NC(=O)[C@H](CCC(=O)O)NC(=O)[C@H](CO)NC(=O)[C@H](Cc1c[nH]c2ccccc12)NC(=O)[C@@H]1CCCN1C(=O)[C@@H](N)CO)[C@@H](C)O)C(=O)N[C@@H](CO)C(=O)O` [Peptide 184, SPWSEWTSCSTS] (H-SPWSEWTSCSTS-OH), the half-maximal inhibitory concentration (IC50) was found to be 14 µM in test [4]; 42 µM in test [5]; 47 µM in [3] (setting [10]); 36 µM in test [7]; 4.2 µM in test [8]. Also, the “inhibition of thrombospondin binding to A2058 melanoma cells, in words” value in the test with A2058 melanoma cells [9] is recorded as “inhibited”.

B1: oncostatin M: growth factor, chemoattractant for AIDS-KS cells (protein, UniProt P13725 26-221, looked up)
Oncostatin-M: AAIGSCSKEYRVLLGQLQKQTDLMQDTSRLLDPYIRIQGLDVPKLREHCRERPGAFPSEETLRGLGRRGFLQTLNATLGCVLHRLADLEQRLPKAQDLERSGLNIEDLEKLQMARPNILGLRNNIYCMAQLLDNSDTAEPTKAGRGASQPPTPTPASDAFQRKLEGCRFLHGYHRFMHSVGRVFSKWGESPNRSRR
In the case of B1, the “stimulation of AIDS-KS cell motility” value with AIDS-KS cells was “simulated motility”.
